ChEMBL document CHEMBL1129422, “Syntheses and structure-activity relationships of the second-generation antitumor taxoids: exceptional activity against drug-resistant cancer cells” (J Med Chem, 1996)

What was measured:
A549 = assay: Concentration required to inhibit growth of human tumor A549 (NSCL) cell line.; format: functional, cell-based
A121 = assay: Concentration required to inhibit growth of human tumor A121 (ovarian) cell line.; format: functional, cell-based
HT-29 = assay: Concentration required to inhibit growth of human tumor HT-29 (colon) cell line.; format: functional, cell-based
MCF7 [1] = assay: Concentration required to inhibit growth of human tumor MCF-7 (breast) cell line.; format: functional, cell-based
MCF7 [2] = assay: Concentration required to inhibit growth of human tumor […] (breast) cell line.; format: functional, cell-based
Mus musculus [3] = assay: Log cell kill = T-C(days)/3.32xTd (Tumor doubling time in days, 1.4 in this assay )on day 7 at 7.7 mg/kg/day in B16 melanoma implanted sc in B6D2F1 mice; format: ADME, organism-based; parameters: route subcutaneous; details: in vivo
Mus musculus [4] = assay: Log cell kill = T-C(days)/3.32xTd (Tumor doubling time in days, 1.4 in this assay )on day 9 at 4.8 mg/kg/day in B16 melanoma implanted sc in B6D2F1 mice; format: ADME, organism-based; parameters: route subcutaneous; details: in vivo
Mus musculus [5] = assay: Tumor growth inhibition of B16 melanoma implanted sc in B6D2F1 mice when 0.4 mL/mouse administered i.v. on day 7 at 7.7 mg/kg/day; format: functional; details: route intravenous
Mus musculus [6] = assay: Tumor growth inhibition of B16 melanoma implanted sc in B6D2F1 mice when 0.4 mL/mouse administered i.v. on day 9 at 4.8 mg/kg/day; format: functional; details: route intravenous
Mus musculus [7] = assay: Tumor growth delay of B16 melanoma implanted sc in B6D2F1 mice when 0.4 mL/mouse administered i.v. on day 7 at 7.7 mg/kg/day; format: functional; details: route intravenous
Mus musculus [8] = assay: Tumor growth delay of B16 melanoma implanted sc in B6D2F1 mice when 0.4 mL/mouse administered i.v. on day 9 at 4.8 mg/kg/day; format: functional; details: route intravenous
Mus musculus [9] = assay: Tumor growth delay of B16 melanoma implanted sc in B6D2F1 mice when 0.4 mL/mouse administered i.v. on day 5 at 12.4 mg/kg/day; format: functional; details: route intravenous
Mus musculus [10] = assay: Tumor growth inhibition of B16 melanoma implanted sc in B6D2F1 mice when 0.4 mL/mouse administered i.v. on day 5 at 12.4 mg/kg/day; format: functional; details: route intravenous
Mus musculus [11] = assay: Log cell kill = T-C(days)/3.32xTd (Tumor doubling time in days, 1.4 in this assay ) on day 5 at 12.4 mg/kg/day in B16 melanoma implanted sc in B6D2F1 mice; format: ADME, organism-based; parameters: route subcutaneous; details: in vivo
A2780 [12] = assay: Cytotoxicity against A2780-C25, oxaliplatin-resistant Ovarian carcinoma cell line; format: functional, cell-based, Homo sapiens
A2780 [13] = assay: Cytotoxicity against A2780-WT, human ovarian carcinoma cell line; format: functional, cell-based
A2780 [14] = assay: Cytotoxicity against A2780-CP3, cisplatin-resistant Ovarian carcinoma cell line; format: functional, cell-based, Homo sapiens
A2780 [15] = assay: Cytotoxicity against A2780-DX5, Doxorubicin-resistant Ovarian carcinoma cell line; format: functional, cell-based, Homo sapiens
Mus musculus [16] = assay: Log cell kill = T-C(days)/3.32xTd (Tumor doubling time in days, 1.4 in this assay )on day 7 at 12.4 mg/kg/day in B16 melanoma implanted sc in B6D2F1 mice; format: ADME, organism-based; parameters: route subcutaneous; details: in vivo
Mus musculus [17] = assay: Log cell kill = T-C(days)/3.32xTd (Tumor doubling time in days, 1.4 in this assay )on day 9 at 7.7 mg/kg/day in B16 melanoma implanted sc in B6D2F1 mice; format: ADME, organism-based; parameters: route subcutaneous; details: in vivo
Mus musculus [18] = assay: Log cell kill = T-C(days)/3.32xTd (Tumor doubling time in days, 1.4 in this assay ) on day 5 at 20 mg/kg/day in B16 melanoma implanted sc in B6D2F1 mice; format: ADME, organism-based; parameters: route subcutaneous; details: in vivo
Mus musculus [19] = assay: Tumor growth inhibition of B16 melanoma implanted sc in B6D2F1 mice when 0.4 mL/mouse administered i.v. on day 9 at 7.7 mg/kg/day; format: functional; details: route intravenous
Mus musculus [20] = assay: Tumor growth delay of B16 melanoma implanted sc in B6D2F1 mice when 0.4 mL/mouse administered i.v. on day 9 at 7.7 mg/kg/day; format: functional; details: route intravenous
Mus musculus [21] = assay: Tumor growth delay of B16 melanoma implanted sc in B6D2F1 mice when 0.4 mL/mouse administered i.v. on day 7 at 12.4 mg/kg/day; format: functional; details: route intravenous
Mus musculus [22] = assay: Tumor growth inhibition of B16 melanoma implanted sc in B6D2F1 mice when 0.4 mL/mouse administered i.v. on day 5 at 20 mg/kg/day; format: functional; details: route intravenous
Mus musculus [23] = assay: Tumor growth inhibition of B16 melanoma implanted sc in B6D2F1 mice when 0.4 mL/mouse administered i.v. on day 7 at 12.4 mg/kg/day; format: functional; details: route intravenous

Molecule | IC50 (A549) | IC50 (A121) | IC50 (HT-29) | IC50 (MCF7 [1]) | IC50 (MCF7 [2]) | IC50 (A2780 [12]; Homo sapiens, A2780) | IC50 (A2780 [13]; Homo sapiens, A2780) | IC50 (A2780 [14]; Homo sapiens, A2780) | IC50 (A2780 [15]; Homo sapiens, A2780) | further results
CCC(=O)O[C@H]1C(=O)[C@@]2(C)[C@H]([C@H](OC(=O)c3ccccc3)[C@]3(O)C[C@H](OC(=O)[C@H](O)[C@H](C=C(C)C)NC(=O)OC(C)(C)C)C(C)=C1C3(C)C)[C@]1(OC(C)=O)CO[C@@H]1C[C@@H]2O | 0.29 nM | 0.12 nM | 0.31 nM | 0.18 nM | 2.2 nM | – | – | – | – | Log 10 cell kill (Mus musculus [3]): 2; Log 10 cell kill (Mus musculus [4]): 0.6; T/C (Mus musculus [5]): 0%; T/C (Mus musculus [6]): 34%; T-C (Mus musculus [7]): 9.3 days; T-C (Mus musculus [8]): 3 days; T-C (Mus musculus [9]): 10.9 days; T/C (Mus musculus [10]): 0%; Log 10 cell kill (Mus musculus [11]): 2.3
CC(=O)O[C@H]1C(=O)[C@@]2(C)[C@H]([C@H](OC(=O)c3ccccc3)[C@]3(O)C[C@H](OC(=O)[C@H](O)[C@H](C=C(C)C)NC(=O)OC(C)(C)C)C(C)=C1C3(C)C)[C@]1(OC(C)=O)CO[C@@H]1C[C@@H]2O | 0.27 nM | 0.46 nM | 0.63 nM | 0.55 nM | 12 nM | 0.3 nM | 0.4 nM | 0.36 nM | 5.7 nM | –
CC(=O)O[C@@]12CO[C@@H]1C[C@H](O)[C@@]1(C)C(=O)[C@H](O)C3=C(C)[C@@H](OC(=O)[C@H](O)[C@@H](NC(=O)OC(C)(C)C)c4ccccc4)C[C@@](O)([C@@H](OC(=O)c4ccccc4)[C@H]21)C3(C)C.O.O.O [DOCETAXEL] | – | – | – | – | – | 1 nM | 1.2 nM | 1.4 nM | 122 nM | Log 10 cell kill (Mus musculus [16]): 1.5; Log 10 cell kill (Mus musculus [17]): 0.9; Log 10 cell kill (Mus musculus [18]): 3.3; T/C (Mus musculus [19]): 8%; T-C (Mus musculus [20]): 4.3 days; T-C (Mus musculus [21]): 7.1 days; T/C (Mus musculus [22]): 0%; T/C (Mus musculus [23]): 7%
COc1cccc2c1C(=O)c1c(O)c3c(c(O)c1C2=O)C[C@@](O)(C(=O)CO)C[C@@H]3O[C@H]1C[C@H](N)[C@H](O)[C@H](C)O1 [DOXORUBICIN] | – | – | – | – | – | 63 nM | 5 nM | 56 nM | 357 nM | –
CISPLATIN | – | – | – | – | – | – | – | – | – | IC50 (A2780 [12]; a2780): 1600 nM; IC50 (A2780 [13]; a2780): 450 nM; IC50 (A2780 [14]; a2780): 9000 nM; IC50 (A2780 [15]; a2780): 280 nM
